{"source": "patent US12098352B2", "about": "“Stem cell-based lung-on-chip models” (EMULATE, INC., priority 2018, dated 2024)", "key": {"[1]": {"test_system": "Alveolus-Chip epithelium/endothelium barrier", "assay": "Barrier function assay (fluorescent dextran / Lucifer Yellow leakage) in Open-Top Alveolus-Chip", "type": "cell-based, human", "settings": "for preventive effect on barrier leakage: co-administered with H2O2 (10 mM), 50 nM Bardoxolone, 0.01-1.0 μM GSK, 2 μM JQ1; for reversibility of barrier breakdown after removal of stressor: additional 2 days in fresh medium", "from_the_text": "We studied interaction between different chip compartments by perturbating the system with biological and chemical stressors such as LPS, and H2O2 which are known to induce a reversible disruption of the cellular monolayer after acute administration both in vivo and in vitro. […] The presence of a strong barrier is indirectly confirmed by the presence of continuous pattern of E-cad and VE-cad in the monolayer of Alveolar epithelial and endothelial cell, respectively.\n(§1) Given the limited availability of in vitro models that can closely mimic human alveolar epithelium function and/or its disease states, we explored whether a microfluidic Alveolus-Chip lined with the primary alveolar epithelial cells on an artificial lung stroma with embedded primary lung fibroblasts and pulmonary microvascular endothelial cells would model a lung injury state. To test this, we exposed the Alveolus-Chips to an acute damage generated by exposure to H2O2 under continuous infusion through the epithelium top channel, similarly to as it is […] administered in mice.\nAir-Liquid interface was replaced by phenol red free MEM (GIBCO: 51200-038) and medium in the bottom fluidical spiraled channel substituted by one containing 1 mg/ml Lucifer Yellow CH, Lithium Salt (ThermoFisher: L453) or 0.1 mg/ml Dextran, Fluorescein, 3000 MW, Anionic, Lysine Fixable (ThermoFisher: D3306). Leakage of the fluorescent probe from the lumen of the spiraled channel to the epithelial compartment was collected from the outlet reservoirs after indicated hours of perfusion. The fluorescence intensity was measured with a 96-well fluorimeter at excitation/emission indicated by the manufacturer."}, "IL-6, IL-8 and MCP-1": {"test_system": "IL-6, IL-8 and MCP-1", "assay": "Cytokine secretion in chip medium effluent (ELISA)", "type": "cell-based, human", "settings": "24 hours of exposure", "from_the_text": "We studied interaction between different chip compartments by perturbating the system with biological and chemical stressors such as LPS, and H2O2 which are known to induce a reversible disruption of the cellular monolayer after acute administration both in vivo and in vitro. […] To assess changes in the barrier function following the exposure to these insults, we added a fluorescent dye (e.g. […]—Dextran-FITC) to the endothelial compartment, which is under control condition confirmed that the endothelium and epithelium form a barrier to the dies. The presence of a strong barrier is also indirectly confirmed by the presence of continuous pattern of E-cad and VE-cad in the monolayer of Alveolar epithelial and endothelial cell, respectively. […] We also decoupled the effect of single biological component to the inflammatory response by selectively removing them from the system in an integrated matrix. […] In fact, the recorded value of IL-6 and IL-8 is not the algebraic sum of the concentration of the factors released by the single cellular components. […]\nThe amount of Surfactant B and C was collected from chip epithelial cell surface by PBS washing and measured by Human SFTPB/Surfactant Protein B ELISA Kit (Sandwich ELISA)—LS-F4439 and Human SFTPC/Surfactant Protein C ELISA Kit (Sandwich ELISA)—LS-F12438 (LifeSpanBioScience) following the manufacturer's protocol. The color reaction was measured at 450 nm with a photometer (specification). […] Similarly, the presence of IL-6, IL-8 and MPC in medium samples was detected by Human TLR-induced Cytokines II: Microbial-induced Multi-Analyte ELISArray Kit (MEH-008A) (Qiogen) following the manufacturer's protocol. The color reaction was measured at 450 nm with a photometer (specification). […]"}, "E-Cadherin": {"test_system": "E-Cadherin", "assay": "E-Cadherin / phalloidin imaging of Alveolus-Chip epithelium after H2O2", "type": "cell-based, human", "description": "In one embodiment, a method is used for testing the effects of activating the Nrf2 system on pathological cell responses using an activating treatment, such as H2O2; LPS, etc. […] Control left panel, H2O2 (10 mM) (48 h) treatment, right panel. E-cadherin (green) actin (pink) and nuclei blue.\nas §1\nOpen-Top Organ-Chips were fixed in 10% neutral buffered formalin. Endothelial cells were stained inside the chip by performinutesg the immunofluorescence steps described below directly inside the microfluidic channel. Stroma equivalents were stained as described by the step below inside the chip or alternatively extracted from the chip and processed for immunohistochemistry analysis. […]"}, "[2]": {"test_system": "cellular monolayer barrier", "assay": "Barrier function in static transwell", "type": "cell-based", "settings": "doses up to 100 ng/ml LPS, 10 mM H2O2"}, "[3]": {"test_system": "human airway epithelium on-chip", "settings": "cited from earlier work"}, "[4]": {"test_system": "alpha smooth muscle Actin (alpha-SMA)", "assay": "TGF-β treatment of open top Alveolar-Chip (EMT markers, immunostaining / qRT-PCR)", "type": "cell-based, human", "settings": "TGF-β up to 72 hours, versus vehicle", "from_the_text": "E-cadherin is shown in pink."}}, "note": "“Also recorded” adds a separate entry of the source.", "data": [{"compound": "CC1(C)CC[C@]2(C(=O)O)CC[C@]3(C)[C@H](C(=O)C=C4[C@@]5(C)C=C(C#N)C(=O)C(C)(C)[C@@H]5CC[C@]43C)[C@@H]2C1", "note": "[Bardoxolone, Bardoxolone (methyl)]", "values": [{"measurement": "preventive effect on barrier leakage", "setting": "[1]", "value": "significant preventive effect on the barrier leakage"}]}, {"compound": "OO", "note": "[H2O2]", "values": [{"measurement": "release of IL-6, IL-8 and MCP-1 in medium effluent", "setting": "IL-6, IL-8 and MCP-1", "value": "no apparent correlation"}, {"measurement": "effect of stressor on barrier function", "setting": "[1]; LPS 10 ng/ml and/or H2O2 10 mM", "value": "causes barrier breakdown and disruption of intracellular junction; also recorded: significant loss of barrier function"}, {"measurement": "reversibility of barrier breakdown after removal of stressor", "setting": "[1]", "value": "barrier breakdown in our chip was reversable"}, {"measurement": "E-Cadherin distribution", "setting": "E-Cadherin; H2O2 10 mM, 48 h", "value": "induces redistribution of E-Cadherin; also recorded: pronounced loss and re-distribution of E-Cadherin"}, {"measurement": "pneumocyte monolayer integrity (microscopy)", "setting": "E-Cadherin; H2O2 continuous infusion through epithelium top channel", "value": "disruption of the pneumocyte monolayer with partial cell detachment"}, {"measurement": "loss of barrier function", "setting": "[2]", "value": "dose dependent loss of barrier function"}]}, {"compound": "Cc1sc2c(c1C)C(c1ccc(Cl)cc1)=N[C@@H](CC(=O)OC(C)(C)C)c1nnc(C)n1-2", "note": "[JQ1, thienotriazolodiazepine]", "values": [{"measurement": "preventive effect on barrier leakage", "setting": "[1]", "value": "significant preventive effect on the barrier leakage"}]}, {"compound": "C[C@@H]1CCN(C(=O)CC#N)C[C@@H]1N(C)c1ncnc2[nH]ccc12", "note": "[Tofacitinib]", "values": [{"measurement": "effect on IL-13 induced phenotype", "setting": "[3]", "value": "suppressed"}]}, {"compound": "IL-13: cytokine perfused to mimic a Th2 enriched microenvironment", "values": [{"measurement": "airway phenotype on IL-13 perfusion through the vascular channel", "setting": "[3]", "value": "significant airway remodeling with goblet cells hyperplasia"}]}, {"compound": "TGF-β: transforming growth factor beta1, cytokine inducing epithelial to mesenchymal transition", "values": [{"measurement": "reversibility of barrier breakdown after removal of stressor", "setting": "[1]", "value": "barrier breakdown in our chip was reversable"}, {"measurement": "ICAM-1 staining", "setting": "[4]", "value": "lack of ICAM-1"}, {"measurement": "alpha-SMA induction", "setting": "[4]", "value": "induction of alpha smooth muscle Actin (alpha-SMA)"}]}]}
